According to PubChem BioAssay (NCI):
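Values below derive from 48-hour exposures of cells grown in 96-well plates, with endpoints linearly interpolated between the two concentrations bracketing the appropriate inhibition level. GI50: concentration for 50% inhibition of growth. TGI marks complete inhibition of growth.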

Key:
Assay in all cases: DTP human tumour cell line panel, 48 h
[1] = test system: COLO 205 colon
[2] = test system: MCF7 breast
[3] = test system: MDA-MB-231 breast
[4] = test system: NCI-H23 lung
[5] = test system: NCI-H522 lung
[6] = test system: OVCAR-5 ovarian
[7] = test system: RPMI-8226 leukemia
[8] = test system: SK-MEL-2 melanoma
[9] = test system: SR leukemia
[10] = test system: U251 CNS

SMILES	GI50 [1] [µM]	TGI [1] [µM]	GI50 [2] [µM]	TGI [2] [µM]	GI50 [3] [µM]	TGI [3] [µM]	GI50 [4] [µM]	TGI [4] [µM]	GI50 [5] [µM]	TGI [5] [µM]	GI50 [6] [µM]	TGI [6] [µM]	GI50 [7] [µM]	TGI [7] [µM]	GI50 [8] [µM]	TGI [8] [µM]	GI50 [9] [µM]	GI50 [10] [µM]	TGI [10] [µM]	TGI [9] [µM]
CNCCOc1nc2c3cnccc3cc(-c3cc(OC)c(OC)c(OC)c3)c2c2ccncc12	0.0575	0.698	< 0.01	0.275	0.0765	1.18	0.0278	0.161	0.0666	0.661	0.0403	0.426	0.0229	0.113	0.264	0.683	< 0.01	0.0241	0.523	–
COc1cc2c3c(c1O)C1(C=CC(=O)C=C1)CC3N(C)CC2 (centres undefined)	–	18.2	–	20.5	–	17.4	–	31.5	–	7.21	–	36.3	–	83.7	–	25.9	–	–	15.4	25.8
CCCCCCC1N=C(N)N=C(N)N1c1ccc(Cl)cc1 (centres undefined)	12.5	26.7	11.4	25.6	11.2	25.9	5.79	38	6.53	22.2	10.7	> 100	8.62	30	11.7	26.3	3	2.53	14.7	11.9
C=C1CO[C@@H]2C[C@@H]1CC/C(C)=C/CC/C(C)=C/CC[C@@]2(C)O	27.3	> 60.9	25.4	> 63.6	15.5	33.3	21.8	44.6	21.1	45.2	18.7	39.9	10.9	33.9	27.4	> 64	1.71	17.9	32.4	12.8
c1cnc2c(c1)Nc1cnncc1S2	–	> 100	–	> 100	–	> 100	–	> 100	–	> 100	–	> 100	–	> 100	–	> 100	–	–	> 100	> 100
C[C@@H]1CN2[C@H]3[C@@H]1CC[C@]31CCC(=O)O[C@]1(C)[C@@H]1CC[C@H]3CCC=C3[C@@H]12	> 70	> 70	> 70	> 70	> 70	> 70	> 70	> 70	> 70	> 70	> 70	> 70	> 70	> 70	> 70	> 70	> 70	> 70	> 70	> 70
